Measured values taken from ChEMBL document CHEMBL3507680, “University of Dundee, Gates Library screen for HepG2 cell viability”.

Test: Human HepG2 cell viability assay in 384 well format
Format: toxicity, cell-based
Design: dose 125 nL, time 70.5 hour; concentration not given beside the values
Details: HepG2 cells, read-out: Inhibition

Structure (SMILES)	cytotoxicity at 70.5 h
COCCOc1ncccc1C(=O)N(C)c1ccc(OC)c(OC)c1	-11.7%
CCN(Cc1cccs1)S(=O)(=O)N(C)C(C)C	-18.1%
Cc1ncccc1C(=O)NC1CC(=O)N(CC(F)(F)F)C1 (stereo not drawn)	-0.154%
O=C(O)c1csc(S(=O)(=O)N2CCN(Cc3ccc(Cl)cc3)CC2)c1	-12.5%
O=C(O)c1csc(S(=O)(=O)N2CCN(Cc3c(F)cccc3Cl)CC2)c1	-31.1%
COC(=O)c1ccc(F)c(S(=O)(=O)Nc2ccc(C(N)=O)cc2)c1	-16.7%
COC(=O)c1cccc(S(=O)(=O)Nc2ccc(Cl)c(C(N)=O)c2)c1	-12.3%
O=C(NCCOc1ccc(F)cc1)C1CCCN(C(=O)C2CC2)C1 (stereo not drawn)	-17.7%
CCC(CC)C(=O)NS(=O)(=O)CCc1ccccc1	-23.7%
CC(C)c1nnc(CN2CCCC2C(=O)OCc2ccccc2)o1 (stereo not drawn)	-10.4%
NC(=O)N1CCCC(C(=O)NCCOc2ccc(F)c(F)c2)C1 (stereo not drawn)	-12.7%
Cc1ccoc1CNC(C)c1nnc2n1CCCC2 (stereo not drawn)	13%
Cc1ccc(CNC(C)c2nnc3n2CCCC3)o1 (stereo not drawn)	-8.48%
COCCS(=O)(=O)NC(=O)c1nnn(-c2ccc(F)cc2)c1C1CC1	2%
CS(=O)(=O)c1ccc(NC(=O)CSc2ccc3c(c2)CCC3)cc1	1.38%
CCN1CCCC(CNC(=O)CCc2ccc(OC)c(F)c2)C1 (stereo not drawn)	-14.6%
CNC(=O)C(NC(=O)c1c(C)noc1C)c1ccc(F)c(F)c1 (stereo not drawn)	2.39%
CCOc1c(OC)cc(/C=C/c2ncc(C(=O)NC)s2)cc1OC	-7.3%
CN(C)C(=O)C1CCN(c2cncc(-n3cccn3)n2)CC1	10.2%
CNC(=O)c1cnc(/C=C/c2cc(OC)c3c(c2)OCCO3)s1	-6.59%
CN(CC(=O)Nc1ccncc1)CC1CCCN1c1cccnn1 (stereo not drawn)	-11.4%
CNS(=O)(=O)c1cccc(C(C)NCc2ccncc2)c1 (stereo not drawn)	-2.51%
COCc1nc2cc(NCc3sc(C)nc3C)ccc2o1	-4.53%
CNC(=O)C(NC(C)=O)c1ccc(F)c(F)c1 (stereo not drawn)	-1.65%

Structure (SMILES)	cytotoxicity at 70.5 h
O=C(C1SCCc2sccc21)N1CCCCC1 (stereo not drawn)	-6.95%
O=C(C1SCCc2sccc21)N1CC(O)C1 (stereo not drawn)	-5.69%
O=C(NCC1(C(=O)O)CCC1)c1nnn(-c2ccc(F)cc2)c1C1CC1	11.7%
CNS(=O)(=O)c1cccc(C(C)NCc2ccsc2)c1 (stereo not drawn)	-0.542%
Cc1ccc(C(CNCc2nccn2C)N2CCOCC2)s1 (stereo not drawn)	-2.09%
CCn1ccnc1CNCC(c1ccc(C)s1)N1CCOCC1 (stereo not drawn)	-7.92%
CNS(=O)(=O)c1cccc(C(C)NCc2ccc(F)cc2F)c1 (stereo not drawn)	-9.82%
CN(C(=O)CN1CCCC1Cc1ccccc1)c1ccccc1 (stereo not drawn)	-7.08%
CCCC(C)C(=O)Nc1ccc(OC)nc1N1CCN(C(C)=O)CC1 (stereo not drawn)	-6.89%
OC(CN1CC(n2cccn2)C1)c1ccc2c(c1)OCCO2 (stereo not drawn)	-3.2%
Cc1ccoc1CNCc1nnc2n1CCCC2C(F)(F)F (stereo not drawn)	-3.7%
O=C(CCn1cccn1)NCC(c1cccs1)N1CCCC1 (stereo not drawn)	-5.3%
CC1CCN(C(CNC(=O)Cn2cccn2)c2cccs2)CC1 (stereo not drawn)	-7.96%
NS(=O)(=O)CCNC(=O)c1cc(Br)c2c(c1)OCCO2	-10.7%
NC(=O)CCCNC(=O)c1cc(Br)c2c(c1)OCCO2	-10.4%
CC(CC(=O)Nc1ncn(CC(=O)NCc2ccccc2)n1)C1CC1 (stereo not drawn)	-14.7%
COC(=O)CCNC(=O)c1cc(Br)c2c(c1)OCCO2	-10.5%
Cc1cnn(Cc2cc(F)ccc2F)c1NC(=O)CNC(=O)C1CC1	1.15%
CCN(CC)C(=O)CCCNC(=O)Cc1nc(-c2ccco2)oc1C	-12.3%
CCOCCCNC(=O)c1cc(Br)c2c(c1)OCCO2	-8.79%
CCC(=O)NCC(=O)Nc1c(C)cnn1Cc1cc(F)ccc1F	-5.16%
CC(=O)Cn1cc(C#N)c(=O)c2cc(Br)ccc21	-13.6%
N#CCCCn1nnc(C2(NC(=O)c3ccccc3)CCCC2)n1	-1.12%
CCc1nc2n(n1)CCCC2Nc1nc(C(C)C)ns1 (stereo not drawn)	-9.57%

Structure (SMILES)	cytotoxicity at 70.5 h
COCc1nc2n(n1)CCCC2Nc1nc(C)ns1 (stereo not drawn)	24.4%
CC(C)CS(=O)(=O)CC(=O)N1CCCC1c1noc(C2CC2)n1 (stereo not drawn)	-8.35%
COc1cccc(CN(C)C(=O)CN2CCN(c3nccs3)CC2)c1	-9.6%
O=C(CN1CCOC(c2ccc(Cl)s2)C1)NCc1ccco1 (stereo not drawn)	17%
COc1ccc(C(O)CN2CC(n3cc(C)cn3)C2)cc1 (stereo not drawn)	-8.25%
Cc1cc(C2CN(CC(=O)NCc3ccco3)CCO2)ccc1F (stereo not drawn)	-11.9%
O=c1oc(-c2cccs2)nn1CC(O)c1ccc2c(c1)CCC2 (stereo not drawn)	14.5%
CCc1sc(C(=O)NC2CC2)cc1C	8.53%
CCCS(=O)(=O)N1CCC(NC(=O)c2cc(CC)c(C)s2)CC1	-0.636%
CC(=O)NCCC(=O)NCc1cc(Br)ccc1OC(F)F	-7.14%
NC(=O)C1CCCN1Cc1cccc(NC(=O)c2ccc(Cl)cc2F)c1 (stereo not drawn)	-20.5%
COC(=O)CCSc1nncn1-c1ccc(OC)nc1	4.09%
CCc1nc(CCNC(=O)Nc2cccc(C(=O)NC)c2C)cs1	9.84%
Cc1cccc(NC(=O)[C@@H]2CCCN2Cc2ccccc2C#N)n1	-10.3%
CSCC(=O)NCc1cc(Br)ccc1OC(F)F	-5.17%
CC(C)C(=O)NC1CCN(c2cccc(OC(F)(F)F)c2)C1=O (stereo not drawn)	8.86%
Cc1cc(S(=O)(=O)N2CCCc3cc(Br)ccc32)sc1C(=O)O	-6.91%
CCC(CC)NC(=O)CN1CCN(C(=O)N(C)C)CC1	-0.0942%
CC(NC(=O)C1CCN(S(N)(=O)=O)CC1)c1cccc(OC(F)F)c1 (stereo not drawn)	-1.7%
Cc1ccc(C(=O)N(C)Cc2c(C)noc2C)c(=O)[nH]1	-0.278%
O=C(Nc1ccc(F)cc1)C1CCc2ccccc2N1 (stereo not drawn)	-1.61%
CC(=O)N(C)CC(=O)NCC1(c2cccc(C)c2)CCCC1	1.29%
CCOCCNC(=O)c1ccn(S(=O)(=O)c2ccc(C)cc2)c1	-2.02%
Cc1nc2n(n1)CC(NCC(=O)NCCC1=CCCCC1)CC2 (stereo not drawn)	0.305%

Structure (SMILES)	cytotoxicity at 70.5 h
Cc1ccc(S(=O)(=O)n2ccc(C(=O)NCC(F)(F)F)c2)cc1	1.3%
CCc1ncc2c(n1)CN(C(C)C(=O)N1CCOCC1)CC2 (stereo not drawn)	17%
CC1(C(=O)NCCN2CCCCC2)CCCN1C(=O)c1ccccc1 (stereo not drawn)	-3.21%
Cn1c(CCNc2nccnc2C#N)nc2cc(Cl)ccc21	-0.473%
Cn1c(CCCNc2nccnc2C#N)nc2ccccc21	1.96%
CCC(CNC(=O)c1nc(=O)[nH][nH]1)Oc1ccccc1C(F)(F)F (stereo not drawn)	1.22%
Cc1nc(NC(=O)NCc2nc3cccc(C)c3n2C)oc1C	13.5%
CSCCN(C)C(=O)C1(c2ccc(F)cc2F)CCOCC1	-0.975%
CCc1nnc(C(C)N(C)Cc2c(C)nn(-c3ccccc3)c2C)o1 (stereo not drawn)	-1.32%
CC(NCC1CCN(CCO)CC1)c1cccc(Cl)c1 (stereo not drawn)	-2.07%
CC(NCC1CCN(CCO)CC1)c1ccc(Cl)cc1 (stereo not drawn)	10.5%
CN(Cc1ccccc1NCc1cccnc1)C(=O)c1cccs1	-2.02%
COc1ccc(C)cc1CN(Cc1ncc(C)o1)C1CCN(C)C1 (stereo not drawn)	14.5%
CCOc1nnc(CN(Cc2ccccc2)CC(O)c2ccco2)s1 (stereo not drawn)	-10.6%
CN(Cc1ccc(Br)s1)Cn1nc(-c2ccc(F)cc2)oc1=O	-4.35%
O=C1NCCCCC1NS(=O)(=O)N1CCCCCC1 (stereo not drawn)	-13.8%
CC1CCN(S(=O)(=O)NC2CCCCNC2=O)CC1 (stereo not drawn)	-5.25%
CN(C(=O)c1ccc(C#N)cc1)C1CCN(c2ccccn2)CC1	12.7%
CN(C(=O)Nc1cccc(C#N)c1)C1CCN(c2ccccn2)CC1	-8.89%
Cc1occc1C(=O)NC1CCN(C(=O)Nc2cccnc2)CC1	-5.69%
Cc1ncc(CN(C)c2nc3c(cnn3C(C)(C)C)c(=O)[nH]2)s1	11.8%
Cn1nnc2cc(C(=O)NS(=O)(=O)Cc3ccc(F)cc3)ccc21	-12.6%
Cc1cc(C(=O)N2CCC(NC(=O)c3cccnc3)CC2)c(C)o1	-9.02%
CC1(C)CCC(CC(=O)O)c2ccccc21 (stereo not drawn)	-3.28%

Structure (SMILES)	cytotoxicity at 70.5 h
CCC(Nc1ccc(Oc2ccc(C#N)cc2OC)cc1)C(N)=O (stereo not drawn)	5.26%
Cc1nc(-c2ccsc2)ccc1C(=O)N1CCn2c(C)nnc2C1	11.2%
Cc1nc(C(NC(=O)C2CCCC2)c2ccccc2F)no1 (stereo not drawn)	-9.04%
O=C(Nc1ccc(F)cc1)NC1(CCO)CCOCC1	-7.29%
OC[C@@H](O)CN(CCC(F)(F)F)c1ncc(Br)cn1	14.1%
COc1cc(S(=O)(=O)Nc2cn[nH]c2)ccc1Br	-12.7%
O=S(=O)(Nc1cn[nH]c1)c1ccc(Br)c(F)c1	-2.34%
CCc1noc(CC)c1CNC(=O)Nc1ccc2[nH]nnc2c1	-4.16%
COc1nc(C)ccc1CNC(=O)NC(C)(C)c1ncc(C)s1	-5.61%
CN(CCOc1cccc(Cl)c1)Cc1nnc(C(C)(C)C)o1	-2.27%
CC(C)C(=O)N1CCN(CCOc2cccc(C#N)c2)CC1	-5.29%
Cc1nnc(CN(C)CCCOc2ccc(Cl)cc2)o1	-10.2%
COCC(C)(CCO)NC(=O)Nc1cccc(Br)c1C (stereo not drawn)	7.98%
COCCC(=O)N1CCCC1c1cccc(C)c1C (stereo not drawn)	23.9%
CNS(=O)(=O)c1ccc(CNC(=O)c2ccccn2)cc1	-9.5%
COc1cccc(CCNC(=O)CCS(=O)(=O)C2CCCC2)c1	-12.4%
Cc1nn(-c2ccccc2)nc1C(=O)NCC(c1ccsc1)N(C)C (stereo not drawn)	13.1%
Cc1cccc(CCNC(=O)CCS(=O)(=O)C2CCCC2)c1	-5.57%
Cc1nnc2n1CCN(C(=O)c1cnc(C3CC3)s1)C2	-2.96%
CS(=O)(=O)NC1CCN(CCc2ccccc2)CC1	-9.51%
COc1ccc(CNC(C)c2ccccc2Cl)c(OC)c1OC (stereo not drawn)	18.3%
Cc1cccc(NC(=O)C2CCc3ccccc3N2)c1 (stereo not drawn)	-0.623%
